Key:
[1] = method code SF-AS, from Frater-Schröder, M.; Alder, S.; Zbinden, G. (1976). Neurotoxic effects of pyridoxine and analogs in rats. Proc. Eur. Soc. Toxicol, 17, 277-284.; settings: pH 7.4
[2] = method code SF-AS, from DOI: 10.1016/0048-3575(87)90152-0
[3] = method code SF-AS, from PMID: 8197227; settings: pH 7.4
[4] = method code SF-AS, from DOI: 10.1002/etc.5620180606
[5] = method code SF-AS, from DOI: 10.1021/je700381u; settings: pH 0.0
[6] = method code SF, from DOI: 10.1016/j.bcp.2004.09.021, PMID: 15627482; settings: pH 7.0
[7] = not given; remark: listed apart in the source
[8] = method code SF-AS, from DOI: 10.1021/jm00163a043, PMID: 2153206; settings: pH 7.0
[9] = method code pH-metric titration, from DOI: 10.1002/(sici)1096-9063(199607)47:3<265::aid-ps416>3.0.co;2-f
[10] = not given; remark: listed apart in the source
[11] = not given; remark: listed apart in the source
[12] = method code SF, from DOI: 10.1034/j.1399-3011.2003.00037.x, PMID: 12492901
[13] = method code SF-AS, from DOI: 10.1111/j.2042-7158.1989.tb06384.x, PMID: 2576447; settings: pH 7.4
[14] = method code SF, from DOI: 10.1021/jm9405147, PMID: 8576915
[15] = method code SF-GLC, from DOI: 10.1080/03086648508073361
[16] = method code SF, from DOI: 10.1016/0378-5173(85)90102-4; settings: pH 8.0
[17] = not given; remark: listed apart in the source
[18] = method code SF-AS, from DOI: 10.1139/cjpp-75-12-1362, PMID: 9534947
[19] = not given; remark: listed apart in the source
[20] = not given; remark: listed apart in the source

Cc1ncc(CO)c(Cc2ccc(N(C)C)cc2)c1O
logD [1]: 0.81

CCOC(C(=O)OCc1ccccc1)C(C)C (centres undefined)
logP [2]: 3.29

NC(=S)NNCc1ccc2c(c1)OCO2
logD [3]: 0.14

COc1cc(/N=N/c2c(Br)cc([N+](=O)[O-])cc2[N+](=O)[O-])c(NC(C)=O)cc1N(CCOC(C)=O)CCOC(C)=O
logP [4]: 4.44

O=C(O)c1cc(Br)ccc1Cl
logD [5]: 3.16

CC(C)CC(=O)OCc1ccccc1
logP [2]: 3.26

Cc1ccccc1C(=O)Nc1cccc(OC(C)C)c1
logP: 3.5

CCCCOC(=O)C1(CCCC)CCC=[N+]1[O-] (centres undefined)
logD [6]: 1.75

Ic1ccc2nc(-c3ccc(-c4cnco4)cc3)cn2c1
logP [7]: 3.64

Ic1ccc2nc(-c3ccc(-c4nccs4)cc3)cn2c1
logP [7]: 3.06

Cc1cn([C@H]2CC[C@@H](CO)O2)c(=O)[nH]c1=S
logD [8]: 0.44

Cc1cn([C@H]2C[C@H](O)[C@@H](CO)O2)c(=O)[nH]c1=S
logD [8]: -0.07

CC(C)C1(C)N=C(c2ncccc2C(=O)O)NC1=O (centres undefined)
logD ([9]; pH 2.7): 0.22

COC(=O)CCC12C=CC(C)(OO1)c1ccccc12 (centres undefined)
logP [10]: 2.13

COC(=O)CCC12C=CC(CCC(=O)OC)(OO1)c1ccccc12
logP [10]: 2.08

N#Cc1ccc(O)cc1
logP [11]: 1.28

CC(=O)CCC(C#N)Nc1ccc(N=Nc2nc3ccc([N+](=O)[O-])cc3s2)cc1 (centres undefined)
logP [4]: 4.08

CN(C)c1ccc(-c2cn3cc(I)ccc3n2)cc1
logP [7]: 4.03

O=C(NNc1nc(-c2ccccc2)cs1)c1ccc2c(c1)OCO2
logD [3]: 2.14

CCCC[C@H](Nc1ccc([N+](=O)[O-])cc1[N+](=O)[O-])C(=O)O
logD ([12]; pH 2.0): 3.25

Cc1ncc(CO)c(COCCC(C)C)c1O
logD [1]: 0.83

NC(=S)N/N=C\c1ccc2c(c1)OCO2
logD [3]: 1.4

O=C(O)c1ccc(Br)cc1F
logD [5]: 2.67

CCn1c(=O)n(C)c(=O)c2nc[nH]c21
logD [13]: 0.52

CC(=O)N[C@@H](Cc1ccccc1)C(=O)O
logD ([12]; pH 2.0): 0.4

O=c1[nH]c(=S)ccn1[C@H]1CC[C@@H](CO)O1
logD [8]: -0.21

CC12C=CC(CCS(N)(=O)=O)(OO1)c1ccccc12 (centres undefined)
logP [10]: 1.66

CC1=C(N2CC2)C(=O)C(Cl)=C(N2CC2)C1=O
logP [14]: 1.2

CC(Cc1ccc(C(C)(C)C)cc1)CN1C[C@@H](C)O[C@@H](C)C1 (some centres undefined)
logD ([9]; pH 9.0): 4.93

Cc1csc(NN=Cc2ccc3c(c2)OCO3)n1
logD [3]: 1.5

C[C@H](Nc1ccc([N+](=O)[O-])cc1[N+](=O)[O-])C(=O)O
logD ([12]; pH 2.0): 2.09

CN(C)P(=O)(N(C)C)N1CCCC1
logP [15]: 0.82

NC1=C(Cl)C(=O)c2ccccc2C1=O
logP [14]: 2.08

CNC(=O)Oc1ccccc1OC(C)C
logP: 1.99

CC(C)[C@H](Nc1ccccc1)C(=O)OCc1ccccc1
logP [2]: 4.41

CN(C)P1(=O)N(C)CCN1C
logP [15]: 0.02

CCn1c(=O)[nH]c(=O)c2nc[nH]c21
logD [13]: -0.11

OCc1ccc(Cl)cc1
logP [11]: 1.99

Nc1ccn(C2CC(O)C(CO)O2)c(=O)n1 (centres undefined)
logD [8]: -1.62

CNC(=O)Oc1cc(C)cc(C)c1
logP: 2.38

CCCN(CCC)CC(=O)OCn1ncc2c(=O)[nH]cnc21
logD [16]: 1.27

CC12C=CC(CCC(=O)O)(OO1)c1ccccc12 (centres undefined)
logP [10]: 1.19

Cc1ncc(CO)c2c1OC1=CCCCC1=C2
logD [1]: 1.98

Ic1ccc2nc(-c3ccc(-c4ncon4)cc3)cn2c1
logP [7]: 3.12

O=C(O)c1ccc(F)cc1Cl
logD [5]: 2.63

CC(Oc1ccc(Oc2ccc(C(F)(F)F)cn2)cc1)C(=O)O (centres undefined)
logP [9]: 3.18

O=C(O)c1ccc(Cl)cc1F
logD [5]: 2.28

CC(C)CC(=O)Oc1ccccc1
logP [2]: 3.18

O=C(O)c1cc(Br)ccc1F
logD [5]: 3.43

CCCCOCc1c(CO)cnc(C)c1O
logD [1]: 1.34

Clc1ccc2ccccc2c1Cl
logP [17]: 4.42

CC(C(=O)O)N(C(=O)c1ccccc1)c1ccc(F)c(Cl)c1 (racemic)
logP [9]: 3.09

COC(=O)C(c1ccccc1)C(C)C (centres undefined)
logP [2]: 3.33

O=C(O)c1cc([N+](=O)[O-])ccc1Cl
logP [11]: 2.13

CC1=C(N2CC2)C(=O)C(CCOC(N)=O)=C(N2CC2)C1=O
logP [14]: 0.16

Nc1ccn([C@H]2C=C[C@@H](CO)O2)c(=O)n1
logD [8]: -0.7

COc1ccc(C(=O)N/N=C\c2c(O)ccc3ccccc23)cc1
logP [18]: 4.06

C=C(C)C(=O)OCCCOC(=O)C(=C)C
logP [19]: 1.86

CC1(C)C=Cc2cc3c(cc2O1)OC1c2ccc(O)cc2OCC31O (centres undefined)
logP [20]: 2.62

O=[N+]([O-])c1cc(-c2ccccc2)ccc1Br
logP [11]: 4.82

NC(C(=O)OCn1ncc2c(=O)[nH]cnc21)c1ccccc1 (centres undefined)
logD [16]: -0.15

COC(=O)CCC1=CC2(CCC(=O)OC)OOC1(C)c1ccccc12 (centres undefined)
logP [10]: 2.06

CC(=O)NC(Cc1c[nH]c2ccccc12)C(N)=O (centres undefined)
logD ([12]; pH 11.0): 0.16

CN1CCC[C@H]1c1cccnc1
logP [9]: 0.93

Clc1cc2c(Cl)cccc2c(Cl)c1Cl
logP [17]: 5.77

CCCCn1c(=O)n(C)c(=O)c2nc[nH]c21
logD [13]: 1.29

Clc1ccc2cc(Cl)c(Cl)cc2c1
logP [17]: 5.12

Clc1cc2c(Cl)ccc(Cl)c2cc1Cl
logP [17]: 5.81

COc1ccc2c(c1)OCc1c-2oc2cc3c(cc12)C=CC(C)(C)O3
logP [20]: 3.18

Oc1ccc2c(c1)OC[C@H]1c3cc4c(cc3O[C@@H]21)OCO4
logP [20]: 2.61

O=c1oc2cc(O)ccc2c2oc3cc(O)ccc3c12
logP [20]: 2.69

CCCCN(CCCC)Cc1c(CO)cnc(C)c1O
logD [1]: 1.69

CCCCC1(C(=O)OC(C)(C)C)CCC=[N+]1[O-] (centres undefined)
logD [6]: 1.36

C=C(C)C(=O)OCCOC(=O)C(=C)C
logP [19]: 1.22

CCCCC1(C(=O)OCC)CCC=[N+]1[O-] (centres undefined)
logD [6]: 0.69

Clc1c(Cl)c(Cl)c2c(Cl)c(Cl)c(Cl)c(Cl)c2c1Cl
logP [17]: 6.42

CC1=C(N2CC2)C(=O)C(Br)=C(N2CC2)C1=O
logP [14]: 1.36

CCN(CC)P(=O)(N(CC)CC)N(CC)CC
logP [15]: 2.53

CC(=O)N/N=C/c1c(O)ccc2ccccc12
logP [18]: 2.91

CCCCC1(C(=O)OC(C)C)CCC=[N+]1[O-] (centres undefined)
logD [6]: 1.07

CC(C)C[C@H](N)C(=O)OCn1ncc2c(=O)[nH]cnc21
logD [16]: 0.19

CN(C)P(=O)(N1CCCC1)N1CCCC1
logP [15]: 1.88

Ic1ccc2nc(-c3ccc(-c4cc[nH]n4)cc3)cn2c1
logP [7]: 3.2

O=C(N/N=C/c1c(O)ccc2ccccc12)c1ccco1
logP [18]: 3.41

O=C(O)c1ccc([N+](=O)[O-])cc1Cl
logP [11]: 2.19

CN(C)CC(=O)OCn1ncc2c(=O)[nH]cnc21
logD [16]: -0.49

NC1=CC(=O)c2ccccc2C1=O
logP [14]: 1.77

CNC(=O)Oc1ccc(C)c(C)c1
logP: 2.25

CCCCn1c(=O)[nH]c(=O)c2nc[nH]c21
logD [13]: 0.84

CCCCC1(C(=O)OCC)C(CC)C(C)C=[N+]1[O-] (centres undefined)
logD [6]: 1.01

O=C(N/N=C/c1c(O)ccc2ccccc12)c1ccc(O)cc1
logP [18]: 3.95

COc1ccc([C@@H]2COc3cc(O)ccc3C2)c(OC)c1
logP [20]: 3.21

CCCC(Nc1ccc([N+](=O)[O-])cc1[N+](=O)[O-])C(=O)O (racemic)
logD ([12]; pH 2.0): 2.88

O=C(N/N=C/c1c(O)ccc2ccccc12)c1ccc([N+](=O)[O-])cc1
logP [18]: 3.58

N#Cc1c(Cl)c(Cl)c(Cl)c(C#N)c1Cl
logP: 3.8

CCN(CC)[C@@H](C)C(=O)OCn1ncc2c(=O)[nH]cnc21 (racemic)
logD [16]: 0.72

CCCn1c(=O)[nH]c(=O)c2nc[nH]c21
logD [13]: 0.33

O=P(N1CCCC1)(N1CCCC1)N1CCCC1
logP [15]: 1.67

c1csc(NNCc2ccc3c(c2)OCO3)n1
logD [3]: 1.8

From the SangsterLogP compilation
